Measured values taken from ChEMBL document CHEMBL2424584, “Novel cross-link breaker based on zwitterion structure: synthesis, structure and druggability studies” (Eur J Med Chem, 2013).
Activity calls are given as the source filed them. No cut-off for these calls is given here.

Species: Rattus norvegicus
Assay: Reversible of increased arterial stiffness associated with diabetes in rat
Assay type: functional, organism-based

With `Cc1csc[n+]1CC(=O)[O-]` the Activity was “Active”.
